From paper PMC11093745 (Nature Methods, 2024) come the findings set out here.

Molecules are shown by their SMILES.

The target in the experiment is T1, cAMPinG1 (Mus musculus, UniProt Q9DBC7, DEL187-189).
T1 construct: gene Prkar1a; PKA-R1α residues 108-186 and 190-381, N-terminus removed, cpGFP (from GCaMP6f) inserted in the β4–β5 loop replacing 187-189, engineered linkers/cpGFP, N-terminal RSET; expressed in HEK293T, lysate
Description: sensor fluorescence titration in HEK293T lysate, Hill fit. The experiment is classed as binding.

T1 sequence (Q9DBC7 108-186, stated change not applied): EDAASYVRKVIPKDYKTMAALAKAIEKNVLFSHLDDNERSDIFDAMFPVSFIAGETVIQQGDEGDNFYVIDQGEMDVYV
T1 sequence (Q9DBC7 190-381, stated change not applied): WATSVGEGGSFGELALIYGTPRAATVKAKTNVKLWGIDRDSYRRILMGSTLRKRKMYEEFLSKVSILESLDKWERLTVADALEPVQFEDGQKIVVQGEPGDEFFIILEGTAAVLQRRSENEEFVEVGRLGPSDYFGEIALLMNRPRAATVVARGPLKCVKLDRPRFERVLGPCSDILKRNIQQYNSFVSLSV

In general, Kd refers to the equilibrium constant for the complex coming apart. Low readings indicate tighter binding, high ones weaker binding. In the case of `Nc1nc2c(ncn2[C@@H]2O[C@@H]3COP(=O)(O)O[C@H]3[C@H]2O)c(=O)[nH]1` [cGMP], the equilibrium dissociation constant (Kd) turned out to be 12.2 µM.
